According to paper PMC3920740 (Biopolymers, 2013):
Where a SMILES comes first, the peptide text is derived from it. The star is where a group is joined. Acetyl(1-pyrenyl) = O=C(Cc1ccc2ccc3cccc4ccc1c2c34)*; Acetyl(2-naphthyl) = O=C(Cc1ccc2ccccc2c1)*

Experiments:
MMP-9 [1] = test: Digestion of peptides by MMP-9; assay type: in vitro ADME; conditions: MMP-9 (10 U) in Tris-HCl buffer, pH 7.5
MMP-9 [2] = test: Tris-HCl buffer; conditions: 37 °C, up to 72 h

Molecule | remaining at 72 h, 500 μM (MMP-9 [1]) [%] | cleaved bond (MMP-9 [2])
CC(C)C[C@H](NC(=O)CNC(=O)[C@H](CC(C)C)NC(=O)[C@@H]1CCCN1C(=O)CNC(=O)[C@H](Cc1ccccc1)NC(=O)[C@H](Cc1ccccc1)NC(=O)Cc1ccc2ccccc2c1)C(=O)N[C@@H](CCCNC(=N)N)C(=O)N[C@@H](CO)C(=O)N[C@@H](CCCCN)C(=O)O [3a] ({Acetyl(2-naphthyl)}-FFGPLGLRSK-OH; N-terminus assumed) | 41 | –
PLSLRSK | – | L-R, major
PLGLRSK | – | L-R, major
CC(C)C[C@H](NC(=O)[C@H](CO)NC(=O)[C@H](CC(C)C)NC(=O)[C@@H]1CCCN1C(=O)Cc1ccc2ccc3cccc4ccc1c2c34)C(=O)N[C@@H](CCCNC(=N)N)C(=O)N[C@@H](CO)C(=O)N[C@@H](CCCCN)C(=O)O [4c] ({Acetyl(1-pyrenyl)}-PLSLRSK-OH; N-terminus assumed) | 18 | –
